Counter-ions that a name gives are not always drawn. Like-named read-outs stand apart in the source and are kept apart here.
Columns and labels:
SARS-CoV E protein = SARS-CoV E protein (Severe acute respiratory syndrome coronavirus, UniProt P59637); format: cell-based
Vpu protein = Vpu protein (Human immunodeficiency virus type 1 group M subtype B, UniProt P05919); conditions: halo of growth score between zero and six; XL1-blue E. coli with pPL-Vpu, no adenine, 37° C.
MHV (strain MHV-A59) = conditions: L929 cells
229E-CoV E-protein = 229E-CoV E-protein (Human coronavirus 229E, UniProt P19741); assay: Bacterial bio-assay for 229E-CoV E-protein; conditions: halo of growth score; E. coli expressing E protein at 37° C.
229E-CoV E-protein, sequence (P19741 whole entry): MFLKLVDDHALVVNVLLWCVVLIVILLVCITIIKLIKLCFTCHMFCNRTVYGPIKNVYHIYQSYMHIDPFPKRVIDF

SARS-CoV E protein, sequence (P59637 whole entry, looked up): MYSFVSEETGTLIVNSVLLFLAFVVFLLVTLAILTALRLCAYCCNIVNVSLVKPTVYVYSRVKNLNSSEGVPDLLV
Vpu protein, sequence (P05919 whole entry): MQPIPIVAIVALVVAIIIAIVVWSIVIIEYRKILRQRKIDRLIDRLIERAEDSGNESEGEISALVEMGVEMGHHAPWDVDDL

| Compound | SARS E protein Inhibition (score/# of times tested) (SARS-CoV E protein) | Vpu Inhibition (score/# of times tested) (Vpu protein) | Percent reduction in Plaque number/# experiments (MHV (strain MHV-A59); 1 uM) | Percent reduction in Plaque number/# experiments (MHV (strain MHV-A59); 10 uM) | Percent reduction in Plaque number/# experiments (MHV (strain MHV-A59); 20 uM) | 229E E protein Inhibition (score) (229E-CoV E-protein) | Toxic (noted in place of plaque reduction) (MHV (strain MHV-A59); 20 uM) |
| --- | --- | --- | --- | --- | --- | --- | --- |
| NC(N)=NC(=O)c1cccc2ccccc12 [1-napthoylguanidine] | 1.32/3 score | 0.3/2 score | 2/3% | 62/3% | 71/3% | 1.9 | – |
| Cc1cc(C)c(C)c(/C=C/C(=O)NC(=N)N)c1C [2,3,5,6,-tetramethylcinnamoylguanidine] | 1.00/1 score | 1.6/2 score | 0/1% | 68/2% | – | 0.3 | – |
| N=C(N)NC(=O)/C=C/c1cccc(F)c1F [2,3-difluorocinnamoylguanidine] | 4.50/1 score | 1.56/2 score | 64/2% | 92/3% | – | 3.3 | Toxic |
| Cc1cccc(/C=C/C(=O)NC(=N)N)c1C [2,3-dimethylcinnamoylguanidine] | – | 3.1/2 score | 34/1% | 79/2% | 95/1% | 0.5 | – |
| Cc1cc(C)c(/C=C/C(=O)NC(=N)N)c(C)c1 [2,4,6-trimethylcinnamoylguanidine] | – | 1.4/2 score | 27/2% | 61/3% | 91/2% | 0.9 | – |
| Cc1ccc(C)c(/C=C/C(=O)NC(=N)N)c1 [2,5-dimethylcinnamoylguanidine] | 3.63/1 score | 2.69/2 score | 39/3% | 91/3% | 95/3% | 1.6 | – |
| N=C(N)NC(=O)/C=C/c1ccccc1C(F)(F)F [2-(trifluoromethyl)cinnamoylguanidine] | 1.38/1 score | 2.4/2 score | 13/1% | 15/1% | 19/1% | 1.5 | – |
| N=C(N)NC(=O)/C=C/c1ccccc1C1CCCCC1 [2-cyclohexylcinnamoylguanidine] | 1.83/1 score | 0.8/2 score | 16/1% | 74/2% | 100/1% | 0.8 | – |
| CCOc1ccccc1/C=C/C(=O)NC(=N)N [2-ethoxycinnamoylguanidine] | 2.57/1 score | 2.25/2 score | 48/2% | 85/3% | 93/2% | 0.6 | – |
| CCc1ccccc1/C=C/C(=O)NC(=N)N [2-ethylcinnamoylguanidine] | 1.50/1 score | 2.75/2 score | 34/1% | 81/2% | 96/1% | 0.8 | – |
| N=C(N)NC(=O)/C=C/c1ccccc1F [2-fluorocinnamoylguanidine] | 0.63/1 score | 2.1/2 score | – | 73/1% | 76/1% | 0.4 | – |
| N=C(N)NC(=O)/C=C/c1ccccc1-c1ccccc1 [2-phenylcinnamoylguanidine] | – | 2.1/2 score | 42/1% | 100/1% | – | 3.0 | – |
| COc1cc(/C=C/C(=O)NC(=N)N)cc(OC)c1OC [3,4,5-trimethoxycinnamoylguanidine] | 2.25/1 score | – | 21/1% | 84/1% | 84/1% | 0.1 | – |
| N=C(N)NC(=O)/C=C/c1ccc2c(c1)OCO2 [3,4-(methylenedioxy)cinnamoylguanidine] | 1.25/1 score | 1.88/2 score | 45/3% | 82/3% | 93/3% | – | – |
| N=C(N)NC(=O)/C=C/c1ccc(F)c(F)c1 [3,4-difluorocinnamoylguanidine] | – | 2.06/2 score | 50/1% | 91/2% | – | 0.4 | Toxic |
| CCOc1cccc(/C=C/C(=O)NC(=N)N)c1 [3-ethoxycinnamoylguanidine] | – | 1.9/2 score | 58/1% | 89/2% | 100/1% | 0.3 | – |
| CC(C)c1cccc(/C=C/C(=O)NC(=N)N)c1.Cl [3-isopropylcinnamoylguanidine hydrochloride] | – | 2.6/2 score | 32/1% | 99/2% | – | 4.0 | – |
| COc1nc(N2CCCCCC2)c(Cl)nc1C(=O)N=C(N)N [3-methoxy-HMA, 3-methoxy-5-(N,N-Hexamethylene)-amiloride] | 1.25/1 score | 0.2/4 score | 35/1% | 31/1% | 15/1% | – | – |
| CC(C)(C)c1ccc(/C=C/C(=O)NC(=N)N)cc1 [4-t-butylcinnamoylguanidine] | 4.00/1 score | 0.19/2 score | – | – | – | 4.0 | – |
| CC(C)CN(C)c1nc(N)c(C(=O)N=C(N)N)nc1Cl [5-(N-Methyl-N-isobutyl)amiloride, 5-(N-methyl-N-isobutyl)amiloride] | 3.13/2 score | 0.8/2 score | 44/2% | 85/1% | 92/1% | – | – |
| N=C(N)NC(=O)CCc1ccccc1 [(3-phenylpropanoyl)guanidine] | 0.73/5 score | 0.2/4 score | 0/1% | 03/1% | 51/1% | – | – |
| N/C(=N\C(=O)c1nc(Cl)c(N)nc1N)NCc1ccccc1 [Benzamil hydrochloride, N-Benzyl-N′-(3,5-diamino-6-chloro-pyrzine-2-carbonyl)-guanidine] | 1.32/2 score | 0.9/3 score | 0/1% | 26/1% | 0/1% | – | – |
| NC(N)=NC(=O)c1ccc2cc(C(=O)N=C(N)N)ccc2c1 [N,N′-Bis(amidino)napthalene-2,6-dicarboxamide] | 0.25/2 score | – | 0/1% | 16/1% | 19/1% | 0.3 | – |
| N=C(NC(=O)/C=C/c1ccccc1)Nc1ccccc1 [N-(cinnamoyl)-N′phenylguanidine, N-(cinnamoyl)-N′-phenylguanidine] | 1.19/2 score | 1.25/3 score | 13/1% | 88/1% | 83/1% | – | – |
| N/C(=N\C(=O)/C=C/c1ccccc1)NC(=O)c1ccccc1 [N-Benzoyl-N′-cinnamoylguanidine] | 0.13/2 score | 0.06/2 score | 14/1% | 0/1% | 0/1% | – | – |
| N=C(N)NC(=O)COc1ccc(Cl)cc1 [[(4-Chlorophenoxy-acetyl]guanidine, (4-Chlorophenoxy-acetyl)guanidine] | 0.19/2 score | 0.56/2 score | 0/1% | 16/1% | 19/1% | – | – |
| N=C(N)NC(=O)/C=C/c1ccoc1 [trans-3-Furanacryoylguanidine, trans-3-furanacryoylguanidine] | 0.88/2 score | 0.38/2 score | 48/1% | 65/1% | 70/1% | – | – |
